What all share (format): in vivo
The subject of one assay is Setaria faberi (SETFA). The assay can be described thus: Biological Example 2 comparative herbicidal data, post-emergence glasshouse screen. The settings on record: 312 h, read-out: Post-emergence herbicidal activities (percentage phytotoxicity) SETFA. The method, boiled down: (§1)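 Plants grown 8 days in a glasshouse (24/16°C day/night, 14 h light, 65% humidity) were sprayed with compound in acetone/water (50:50) containing 0.5% Tween 20. They were kept under the same conditions and watered twice daily. Phytotoxicity was scored visually after 13 days (0 = no damage, 100 = total damage).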

Assay [1] concerns Alopecurus myosuroides (ALOMY). The description is as above. The settings on record: 312 h, read-out: Post-emergence herbicidal activities (percentage phytotoxicity) ALOMY. Put shortly: as §1
The subject of assay [2] is Echinochloa crus-galli (ECHCG). Described as above. The note with it: 312 h, read-out: Post-emergence herbicidal activities (percentage phytotoxicity) ECHCG. The method, boiled down: as §1
Assay [3] relates to Solanum nigrum (SOLNI). Kind of assay: Test 1A glasshouse assay for herbicidal activity, post-emergence. The note with it: 312 h, 250 g/ha, evaluated after 13 days, read-out: percentage phytotoxicity SOLNI. The method, boiled down: (§2)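 Damage is rated by eye as percent phytotoxicity on a 0–100 scale, 13 days after treatment. Compound is sprayed in acetone/water (50:50) with 0.5% Tween 20 onto pots one day (pre-emergence) or eight days (post-emergence) after sowing, with plants kept at 24/16 °C and 14 h light.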

Assay [4] has as its system Ipomoea hederacea (IPOHE). The description is as above. The settings on record: 312 h, 250 g/ha, evaluated after 13 days, read-out: percentage phytotoxicity IPOHE. The method, boiled down:
as §2

In assay [5] the test system is Brachiaria plantaginea (BRAPL). The assay can be described thus: Test 1B glasshouse assay for herbicidal activity, pre-emergence. The settings on record: Urochloa plantaginea, 480 h, 500 g/ha, 20 DAA, read-out: percentage phytotoxicity BRAPL. The method, boiled down: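 Warm-climate glasshouse, 24/18° C., 16 h light, 65% humidity. Spray: IF50 (50 g/liter stock) in 0.2% v/v X-77; pre-emergence 1 day post-sowing, post-emergence ~12 days (10-13). Visual phytotoxicity 0-100%, at 15 DAA post, 20 DAA pre.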

In assay [6] the test system is Solanum nigrum (SOLNI). The assay can be described thus: Test 1A glasshouse assay for herbicidal activity, pre-emergence. The note with it: 312 h, evaluated after 13 days, read-out: percentage phytotoxicity SOLNI. Put shortly:
as §2

Assay [7] has as its system Ipomoea hederacea (IPOHE). The description is as above. The note with it: 312 h, evaluated after 13 days, read-out: percentage phytotoxicity IPOHE. The method, boiled down: as §2

Structures are written as SMILES.

Take `CC#Cc1ccc(C2C(=O)C(C)(C)OC(C)(C)C2=O)c(C)c1` [Compound A-1]: the results for the pest or weed control at 15.625 g/ha (with Setaria faberi (SETFA) (15.625 g/ha application rate); in assay [1] (15.625 g/ha application rate); in assay [2] (15.625 g/ha application rate)) were 20%, 10% and 20%, respectively. Moreover, the pest or weed control at 62.5 g/ha in the assay with Setaria faberi (SETFA) (62.5 g/ha application rate) was found to be 40%; in assay [1] (62.5 g/ha application rate) it was 80%; in assay [2] (62.5 g/ha application rate), 90%. Further, the pest or weed control at 250 g/ha is 30% in the assay on Solanum nigrum (SOLNI) [3], 90% in assay [4], 0% in the assay with Solanum nigrum (SOLNI) [6] and 0% in assay [7]. In assay [5], the pest or weed control at 500 g/ha was determined as 90%.

For the origin of these results see US9615577B2, “Herbicidally active cyclic dione compounds, or derivatives therefor, substituted by a phenyl which has an alkynyl-containing substituent” (Syngenta Limited, priority 2012, dated 2017).
